# In US9346769B2, “Tetrazolones as inhibitors of fatty acid synthase” (Infinity Pharmaceuticals, Inc., priority 2010, dated 2016):
# Target: T1, human FASN (Homo sapiens, UniProt P49327)
# T1 construct: was purified from SKBR3 cells using procedures modified from those in Jayakumar et al; endogenous in cells; host or cells: SKBR3 human breast cancer cells (ATCC); Endogenous enzyme purified by ammonium sulfate precipitation and a mono Q column
# Test: FASN NADPH Consumption Assay
# Type: biochemical
# Details: human FASN purified from SKBR3 cells; starred symbols
# Description: Human FASN protein (SEQ ID NO. 1) was purified from SKBR3 cells using procedures modified from those in Jayakumar et al. PNAS 1995, 92:8695-8699. SKBR3 cells were obtained from ATCC and grown in DMEM high glucose medium supplemented with 10% FBS, 1 μg/mL bovine pancreas insulin, 100 U/mL penicillin and 100 µg/mL streptomycin. The confluent cells were trypsinized and washed three times with PBS buffer before frozen in liquid N2 and stored at −80° C. Frozen cells were thawed on ice and resuspended in lysis buffer (25 mM Tris-HCl, pH 7.0, 15 mM NaCl, 1 mM EDTA, and 1 mM DTT) with protease inhibitors. The cells were lysed by sonication, and the cell debris was removed by centrifugation at 20,000 rpm for 30 min. To the supernatant, neutralized saturated ammonium sulfate solution was added to a final concentration of 35%. The solution was left on ice for 1 hr, and the precipitated proteins were harvested by centrifugation at 20,000 rpm for 30 min. The proteins were redissolved in lysis buffer without NaCl and loaded on a mono Q column. Bound proteins were eluted with a linear gradient of NaCl in lysis buffer. Each fraction was analyzed by SDS-PAGE and FASN NADPH consumption assay. The fractions containing FASN were pooled and concentrated to 2-3 mg/mL. Glycerol was added to 20%, and the protein was frozen in liquid N2 and stored at −80° C.
# All chemicals were purchased from Sigma (St. Louis, Mo.). The procedures of NADPH consumption assay were similar to those described in Cox et al., PNAS 1983, 80:4233-4237. On a 96-well polypropylene microplate, dilution series (typical concentrations 60 nM-1.0 mM) of test compounds were prepared in DMSO, of which 4.0 μL each was transferred to a black polystyrene assay microplate and mixed with 36 μL FASN assay buffer (50 mM potassium phosphate, pH 7.0, 1.0 mM EDTA, 0.01% NP-40) plus 5.0 mM fresh DTT. FASN protein (40 μL 150 nM FASN) was added per well, and the microplate was incubated at 37° C. for 30 min. Enzyme activity measurement was initiated by addition of 20 μL 5× substrate mixture to final concentrations of 60 nM FASN, 2.4 nM-40 μM compound, 0.2 mM NADPH, 50 μM butyryl-CoA, 0.5 mM malonyl-CoA in 100 μL assay buffer plus 5.0 mM DTT and 4.0% DMSO. NADPH consumption was monitored kinetically by fluorescence (λEx=340 nm, λEm=460 nm) on an EnVision 2100 multilabel plate reader (Perkin Elmer, Waltham, Mass.). FASN enzyme activity (slope) in the presence of 4% DMSO was used as maximum control, whereas background (minimum control) was measured by omission of malonyl-CoA in the substrate mixture. Inhibition curves were fitted by a logistic function to yield IC50 values:
# Compounds were assayed as inhibitors of human FASN using the above-described FASN Scintillation Proximity Flashplate Assay (IC50; nM) or FASN NADPH Consumption Assay (*) (IC50; nM). The corresponding activity of the isolated compound is also provided along with the measured mass (ES^+).
# T1 sequence (P49327 whole entry): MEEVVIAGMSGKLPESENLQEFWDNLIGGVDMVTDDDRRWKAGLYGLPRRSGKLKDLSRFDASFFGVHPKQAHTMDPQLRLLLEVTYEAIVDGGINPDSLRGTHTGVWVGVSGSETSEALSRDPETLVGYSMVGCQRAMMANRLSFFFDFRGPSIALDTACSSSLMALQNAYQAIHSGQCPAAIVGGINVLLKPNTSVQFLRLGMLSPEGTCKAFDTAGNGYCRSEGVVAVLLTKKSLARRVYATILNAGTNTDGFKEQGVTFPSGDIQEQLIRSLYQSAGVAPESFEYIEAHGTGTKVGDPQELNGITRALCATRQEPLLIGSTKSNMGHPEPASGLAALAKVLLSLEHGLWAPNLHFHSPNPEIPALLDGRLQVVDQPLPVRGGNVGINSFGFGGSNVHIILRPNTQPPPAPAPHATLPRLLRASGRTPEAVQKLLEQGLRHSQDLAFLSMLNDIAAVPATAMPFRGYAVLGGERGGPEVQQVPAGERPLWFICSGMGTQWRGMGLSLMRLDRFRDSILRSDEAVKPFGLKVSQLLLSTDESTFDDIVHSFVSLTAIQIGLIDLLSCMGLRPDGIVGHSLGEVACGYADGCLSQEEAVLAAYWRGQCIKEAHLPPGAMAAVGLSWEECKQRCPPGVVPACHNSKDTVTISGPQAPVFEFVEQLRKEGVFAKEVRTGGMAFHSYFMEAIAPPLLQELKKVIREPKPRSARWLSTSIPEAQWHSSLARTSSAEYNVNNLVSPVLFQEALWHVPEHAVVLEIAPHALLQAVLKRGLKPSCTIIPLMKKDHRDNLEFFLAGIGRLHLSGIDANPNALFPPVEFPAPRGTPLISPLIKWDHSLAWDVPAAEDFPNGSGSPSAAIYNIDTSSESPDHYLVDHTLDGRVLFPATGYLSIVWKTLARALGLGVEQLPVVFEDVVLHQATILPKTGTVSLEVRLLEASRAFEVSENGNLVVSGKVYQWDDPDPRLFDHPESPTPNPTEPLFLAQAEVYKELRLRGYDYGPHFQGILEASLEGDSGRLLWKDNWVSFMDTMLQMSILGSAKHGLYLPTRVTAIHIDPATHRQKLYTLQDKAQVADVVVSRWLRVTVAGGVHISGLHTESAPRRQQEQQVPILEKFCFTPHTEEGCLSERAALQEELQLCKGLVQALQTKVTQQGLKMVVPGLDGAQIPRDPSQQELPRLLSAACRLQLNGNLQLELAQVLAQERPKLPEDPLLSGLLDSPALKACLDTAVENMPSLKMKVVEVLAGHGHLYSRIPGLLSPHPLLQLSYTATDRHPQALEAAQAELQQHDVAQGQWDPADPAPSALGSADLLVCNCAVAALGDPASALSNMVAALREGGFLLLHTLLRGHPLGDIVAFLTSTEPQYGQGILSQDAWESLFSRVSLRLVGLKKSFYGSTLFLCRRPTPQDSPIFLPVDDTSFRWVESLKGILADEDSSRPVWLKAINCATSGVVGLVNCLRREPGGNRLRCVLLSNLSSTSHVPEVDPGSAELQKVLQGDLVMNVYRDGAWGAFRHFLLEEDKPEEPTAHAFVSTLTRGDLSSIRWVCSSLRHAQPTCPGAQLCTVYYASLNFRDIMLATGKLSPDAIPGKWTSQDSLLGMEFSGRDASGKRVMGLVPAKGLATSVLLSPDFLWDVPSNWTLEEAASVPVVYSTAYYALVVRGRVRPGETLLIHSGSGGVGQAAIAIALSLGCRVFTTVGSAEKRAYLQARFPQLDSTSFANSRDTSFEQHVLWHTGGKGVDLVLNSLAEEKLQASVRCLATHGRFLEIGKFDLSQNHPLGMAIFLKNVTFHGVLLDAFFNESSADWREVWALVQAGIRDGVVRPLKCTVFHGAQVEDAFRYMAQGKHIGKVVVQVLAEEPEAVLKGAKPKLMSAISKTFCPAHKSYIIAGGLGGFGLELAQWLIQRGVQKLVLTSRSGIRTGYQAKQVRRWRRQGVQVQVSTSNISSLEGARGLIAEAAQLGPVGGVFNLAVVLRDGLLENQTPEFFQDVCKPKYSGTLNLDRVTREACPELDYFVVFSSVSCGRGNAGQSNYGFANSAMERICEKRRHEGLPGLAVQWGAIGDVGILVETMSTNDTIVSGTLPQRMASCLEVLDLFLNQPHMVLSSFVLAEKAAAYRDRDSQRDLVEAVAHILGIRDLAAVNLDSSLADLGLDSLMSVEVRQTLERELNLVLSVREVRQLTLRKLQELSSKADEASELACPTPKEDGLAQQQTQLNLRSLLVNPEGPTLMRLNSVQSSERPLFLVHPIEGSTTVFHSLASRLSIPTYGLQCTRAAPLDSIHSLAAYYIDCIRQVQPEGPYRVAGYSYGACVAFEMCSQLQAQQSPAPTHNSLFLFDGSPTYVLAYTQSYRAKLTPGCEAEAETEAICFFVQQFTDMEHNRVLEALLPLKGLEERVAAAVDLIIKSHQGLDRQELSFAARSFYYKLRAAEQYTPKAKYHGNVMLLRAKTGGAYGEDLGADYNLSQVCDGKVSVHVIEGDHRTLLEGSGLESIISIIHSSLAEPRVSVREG
row,IC50,Compound
1,60 to 250 nM,CCN(C(=O)n1nnn(-c2ccccc2)c1=O)c1cc(C(=O)O)ccc1OC
2,250 to 1000 nM,O=C(O)c1ccc(N(CCc2ccccc2)C(=O)n2nnn(-c3ccccc3)c2=O)cc1
3,250 to 1000 nM,COc1ccc(C(=O)O)cc1N(CCCc1ccccc1)C(=O)n1nnn(-c2ccccc2OC)c1=O
4,1000 to 10000 nM,CCN(C(=O)n1nnn(-c2ccccc2OC)c1=O)c1cc(C(=O)O)ccc1OC(C)C
5,250 to 1000 nM,CN(C(=O)n1nnn(-c2ccccc2Cl)c1=O)c1ccccc1
6,250 to 1000 nM,CC(C)N(C(=O)n1nnn(-c2ccccc2Cl)c1=O)c1ccccc1
7,60 to 250 nM,CN(C(=O)n1nnn(-c2ccccc2Cl)c1=O)c1ccc(Br)cc1
8,60 to 250 nM,C=CCN(C(=O)n1nnn(-c2ccccc2Cl)c1=O)c1ccccc1
9,250 to 1000 nM,CN(C(=O)n1nnn(-c2ccccc2Cl)c1=O)c1cccc(F)c1
10,250 to 1000 nM,C/C=C(/C)c1ccc(N(C)C(=O)n2nnn(-c3ccccc3Cl)c2=O)cc1
11,60 to 250 nM,CN(C(=O)n1nnn(-c2ccccc2Cl)c1=O)c1ccccc1F
12,60 to 250 nM,CCN(C(=O)n1nnn(-c2ccccc2Cl)c1=O)c1ccccc1
13,250 to 1000 nM,CN(C(=O)n1nnn(-c2ccccc2Br)c1=O)c1ccccc1
14,250 to 1000 nM,CN(C(=O)n1nnn(-c2ccccc2F)c1=O)c1ccccc1
15,60 to 250 nM,CCN(C(=O)n1nnn(-c2c(F)cccc2F)c1=O)c1ccc([N+](=O)[O-])cc1F
16,< 60 nM,CCN(C(=O)n1nnn(-c2c(F)cccc2F)c1=O)c1ccc(Br)cc1
17,1000 to 10000 nM,O=C(N(CCO)c1ccccc1)n1nnn(-c2c(F)cccc2F)c1=O
18,1000 to 10000 nM,CC(C)(C)OC(=O)N[C@@H]1CCN(C(=O)n2nnn(-c3c(Cl)cccc3Cl)c2=O)C1
19,> 10000 nM,CC(C)(C)OC(=O)N[C@H]1CCN(C(=O)n2nnn(-c3c(Cl)cccc3Cl)c2=O)C1
20,> 10000 nM,O=C(N1CCCC1)n1nnn(-c2c(Cl)cccc2Cl)c1=O
21,> 10000 nM,CC(=O)N[C@H]1CCN(C(=O)n2nnn(-c3c(Cl)cccc3Cl)c2=O)C1

row,IC50,Compound
1,> 10000 nM,CC(=O)N[C@@H]1CCN(C(=O)n2nnn(-c3c(Cl)cccc3Cl)c2=O)C1
2,> 10000 nM,CN(C)C(=O)[C@@H]1CCCN1C(=O)n1nnn(-c2c(Cl)cccc2Cl)c1=O
3,> 10000 nM,CNC(=O)[C@@H]1CCCN1C(=O)n1nnn(-c2c(Cl)cccc2Cl)c1=O
4,1000 to 10000 nM,CC(C)(C)OC(=O)C1CCN(C(=O)n2nnn(-c3c(Cl)cccc3Cl)c2=O)CC1
5,> 10000 nM,O=C(C1CCCN(C(=O)n2nnn(-c3c(Cl)cccc3Cl)c2=O)C1)N1CCCC1 (stereo not drawn)
6,1000 to 10000 nM,CC(C)(C)OC(=O)NC1CCCN(C(=O)n2nnn(-c3c(Cl)cccc3Cl)c2=O)C1 (stereo not drawn)
7,1000 to 10000 nM,CCN(CC)C(=O)C1CCCN(C(=O)n2nnn(-c3c(Cl)cccc3Cl)c2=O)C1 (stereo not drawn)
8,1000 to 10000 nM,CN(C)C1CCCN(C(=O)n2nnn(-c3c(Cl)cccc3Cl)c2=O)C1 (stereo not drawn)
9,> 10000 nM,CC(=O)NC1CCCN(C(=O)n2nnn(-c3c(Cl)cccc3Cl)c2=O)C1 (stereo not drawn)
10,1000 to 10000 nM,O=C(C1CCCN(C(=O)n2nnn(-c3c(Cl)cccc3Cl)c2=O)C1)N1CCCCC1 (stereo not drawn)
11,> 10000 nM,O=C(O)C1CCN(C(=O)n2nnn(-c3c(Cl)cccc3Cl)c2=O)CC1
12,1000 to 10000 nM,O=C(N1CCCCC1)n1nnn(-c2c(Cl)cccc2Cl)c1=O
13,> 10000 nM,CS(=O)(=O)NC1CCCN(C(=O)n2nnn(-c3c(Cl)cccc3Cl)c2=O)C1 (stereo not drawn)
14,> 10000 nM,CCNC(=O)NC1CCCN(C(=O)n2nnn(-c3c(Cl)cccc3Cl)c2=O)C1 (stereo not drawn)
15,> 10000 nM,O=C(N1CCOCC1)n1nnn(-c2ccccc2Cl)c1=O
16,60 to 250 nM,Cc1ccccc1C#Cc1cccc(F)c1-n1nnn(C(=O)N2CCCC3CCCCC32)c1=O (stereo not drawn)
17,60 to 250 nM,O=C(N1CCCC2CCCCC21)n1nnn(-c2c(F)cccc2Br)c1=O (stereo not drawn)
18,60 to 250 nM,O=C(N1CCCC2CCCCC21)n1nnn(-c2c(F)cccc2F)c1=O (stereo not drawn)
19,250 to 1000 nM,O=C(N1CCCC2CCCCC21)n1nnn(-c2ccccc2Oc2ccccc2)c1=O (stereo not drawn)
20,250 to 1000 nM,O=C(N1CCCC2CCCCC21)n1nnn(-c2c(Cl)cccc2Cl)c1=O (stereo not drawn)
21,1000 to 10000 nM,O=C(N1CC[C@](O)(c2ccccc2)[C@@H]2CCCC[C@H]21)n1nnn(-c2c(F)cccc2F)c1=O

row,IC50,Compound
1,1000 to 10000 nM,C[C@@H]1CC(=O)[C@@H]2CCCC[C@H]2N1C(=O)n1nnn(-c2c(F)cccc2F)c1=O
2,250 to 1000 nM,O=C(N1CCc2ccccc2C1)n1nnn(-c2c(F)cccc2F)c1=O
3,60 to 250 nM,O=C(O)c1ccc2c(c1)CCCN2C(=O)n1nnn(-c2ccccc2)c1=O
4,60 to 250 nM,O=C(N1CCCc2ccccc21)n1nnn(-c2ccccc2Oc2ccccc2)c1=O
5,250 to 1000 nM,COC(=O)C1CCc2ccccc2N1C(=O)n1nnn(-c2ccccc2Oc2ccccc2)c1=O (stereo not drawn)
6,60 to 250 nM,Cc1cccc2c1N(C(=O)n1nnn(-c3c(F)cccc3F)c1=O)CCC2
7,1000 to 10000 nM,O=C(N1CCCc2cc([N+](=O)[O-])ccc21)n1nnn(-c2c(F)cccc2F)c1=O
8,60 to 250 nM,COc1ccc2c(c1)CCCN2C(=O)n1nnn(-c2c(F)cccc2F)c1=O
9,60 to 250 nM,Cc1ccc2c(c1)CCCN2C(=O)n1nnn(-c2c(F)cccc2F)c1=O
10,60 to 250 nM,O=C(N1CCCc2ccccc21)n1nnn(-c2c(F)cccc2F)c1=O
11,60 to 250 nM,CC(C)(C)OC(=O)Nc1ccc2c(c1)CCCN2C(=O)n1nnn(-c2c(F)cccc2F)c1=O
12,60 to 250 nM,O=C(N1CCCc2cc(Br)ccc21)n1nnn(-c2c(F)cccc2F)c1=O
13,60 to 250 nM,O=CNc1ccc2c(c1)CCCN2C(=O)n1nnn(-c2c(F)cccc2F)c1=O
14,60 to 250 nM,Nc1ccc2c(c1)CCCN2C(=O)n1nnn(-c2c(F)cccc2F)c1=O
15,60 to 250 nM,O=CNc1cccc2c1CCCN2C(=O)n1nnn(-c2c(F)cccc2F)c1=O
16,60 to 250 nM,COC(=O)C1CCc2ccccc2N1C(=O)n1nnn(-c2c(F)cccc2F)c1=O (stereo not drawn)
17,60 to 250 nM,CC1CCc2ccccc2N1C(=O)n1nnn(-c2c(F)cccc2F)c1=O (stereo not drawn)
18,60 to 250 nM,CC(C)(C)OC(=O)Nc1cccc2c1CCCN2C(=O)n1nnn(-c2c(F)cccc2F)c1=O
19,250 to 1000 nM,O=C(N1CCCc2ccc(C(F)(F)F)cc21)n1nnn(-c2c(F)cccc2F)c1=O
20,60 to 250 nM,Nc1cccc2c1CCCN2C(=O)n1nnn(-c2c(F)cccc2F)c1=O
21,1000 to 10000 nM,O=C(OCc1ccccc1)c1ccc2c(c1)CCCN2C(=O)n1nnn(-c2c(Cl)cccc2Cl)c1=O

row,IC50,Compound
1,< 60 nM,O=C(N1c2ccccc2Sc2ccccc21)n1nnn(-c2c(F)cccc2F)c1=O
2,1000 to 10000 nM,O=C(N1CCOc2ccccc21)n1nnn(-c2c(F)cccc2F)c1=O
3,60 to 250 nM,O=C(N1Cc2ccccc2Cc2ccccc21)n1nnn(-c2c(F)cccc2F)c1=O
4,60 to 250 nM,O=C(N1CCCCc2ccccc21)n1nnn(-c2c(F)cccc2F)c1=O
5,60 to 250 nM,Cc1ccccc1C#Cc1cccc(F)c1-n1nnn(C(=O)N2CCCCc3ccccc32)c1=O
6,60 to 250 nM,Cc1ccccc1CCc1cccc(F)c1-n1nnn(C(=O)N2CCCCc3ccccc32)c1=O
7,250 to 1000 nM,O=C(N1CCCCc2ccccc21)n1nnn(-c2c(F)cccc2Br)c1=O
8,1000 to 10000 nM,CCOC(=O)N1CCC(N(CC)C(=O)n2nnn(-c3c(Cl)cccc3Cl)c2=O)CC1
9,> 10000 nM,CCN(C(=O)n1nnn(-c2cccc(Cl)c2)c1=O)C1CCCCC1
10,> 10000 nM,CCN(C(=O)n1nnn(-c2cccc(C(F)(F)F)c2)c1=O)C1CCCCC1
11,> 10000 nM,CCN(C(=O)n1nnn(-c2cccc(C#N)c2)c1=O)C1CCCCC1
12,60 to 250 nM,O=C(N(O)C1CCCCC1)n1nnn(-c2c(F)cccc2F)c1=O
13,250 to 1000 nM,CCN(C(=O)n1nnn(-c2c(F)cccc2F)c1=O)C1CCCCC1
14,1000 to 10000 nM,N#CCCN(C(=O)n1nnn(-c2c(Cl)cccc2Cl)c1=O)C1CCCCC1
15,1000 to 10000 nM,CCN(C(=O)n1nnn(-c2c(Cl)cccc2Cl)c1=O)C1CCCCC1
16,1000 to 10000 nM,CS(=O)(=O)NCCCN(C(=O)n1nnn(-c2c(Cl)cccc2Cl)c1=O)C1CCCCC1
17,> 10000 nM,CC(C)(C)OC(=O)NCCN(C(=O)n1nnn(-c2c(Cl)cccc2Cl)c1=O)C1CCCCC1
18,1000 to 10000 nM,CCN(C(=O)n1nnn(-c2c(Cl)cccc2Cl)c1=O)C1CCCC(C(=O)N2CCOCC2)C1 (stereo not drawn)
